Patent US7335644B2, “Anti-hypertensive molecules and process for preparation thereof” (Council of Scientific and Industrial Research, priority 2003, dated 2008)

Tested on: arterial blood pressure of hypertensive Wistar rats
Conditions: 1 mg/kg

## C[C@H](CS)C(=O)N1CCC[C@H]1C(=O)O [captopril]
Reference inhibitor
  fall of blood pressure: 60 mm Hg
  time during which still quite effective in blocking angiotensin-converting enzyme: ≥ 180 min
Reference inhibitor (not shown)
  time for blood pressure to return to baseline: 240 min
